{"source": "patent US20060171971A1", "about": "“Composition for wet wipes containing a non-irritating skin health benefit ingredient and the process for making” (The Procter & Gamble Company, priority 2005, published 2006)", "key": {"[1]": {"assay": "Lability method (Zincon metallochromic dye colour change)", "assay_type": "physicochemical", "conditions": "30 mg/10 ml water, pH 7-9, Zincon dye", "source_text": "Particulate zinc materials differ with respect to how strongly the zinc ion (Zn^2+) is held by the counterion or counterions. […] To determine which particulate zinc materials provide labile Zn^2+, a test is developed using a metallochromic dye that changes color upon coordinating Zn 2+. The response is a binary visual assessment of whether or not the color changes, indicating zinc-binding.\nThe method is based on the commercial metallochromic dye Zincon sodium salt (2-carboxy-2′-hydroxy-5′-sulfoformazyl-benzene sodium salt, such as Cat. No. 201332 available from Sigma-Aldrich, St. Louis, Mo.). Zincon changes from an orange to blue color upon binding zinc ion and provides the basis for detecting available Zn 2+. The specific procedure involves making a stock solution of Zincon in ethanol (50 mg/10 ml ethanol). The particulate zinc material is then added to water (30 mg/10 ml water) and agitated vigorously (pH should be 7-9). Three to four drops of Zincon solution are then added to the particulate zinc material in water, agitated, and a visual assessment of color change made."}, "[2]": {"tested_on": "IL-1α", "assay": "Epiderm culture assay with quantification of IL-1α (test sample mixed with IIBM)", "assay_type": "cell-based, human", "conditions": "16 hours", "source_text": "(§1) Epiderm Culture Assay With Quantification of IL-1α and Viability\n(§2) In order to evaluate the efficacy of the materials and embodiments of the present invention, a bio-engineered human skin construct is used to model the response of normal human epidermis. The EPIDERM™ skin model (as available from MatTek Corporation, Ashland, Mass.) is a three-dimensional, cornified, air-interfaced culture system. Each EPIDERM™ culture has multiple layers of progressively differentiated keratinocytes, closely resembling human epidermis. EPIDERM™ EPI-200-hydrocortisone-free (hereinafter EPI-200-HCF) cultures are used because these cultures show a strong inflammatory response to irritants. Cultures are incubated in medium that is also hydrocortisone-free (EPI-100-MM-HCF). All work with the cultures is carried out under sterile conditions in a biological safety cabinet.\n(§3) Experiments using the EPI-200-HCF cultures are conducted in six-well plates supplied with the cultures. Each well of the plate is filled with 900 microliters of pre-warmed EPI-100-MM-HCF medium, and then one EPI-200-HCF culture insert (shipped in 24-well format) is carefully transferred into the center of each well such that no air bubbles are trapped underneath the insert. After all of the culture inserts are transferred, the six-well plates are incubated in a 37° C., 5% CO2 tissue culture incubator for at least two hours.\n(§4) During the time the cultures are acclimating, the controls and test samples to be applied to the cultures are prepared. Sufficient material is prepared such that quadruplicate cultures can be dosed with about 100 microliters of the control or test sample. Throughout this section, the word “water” refers to autoclaved, Milli-Q water.\n(§5) For each experiment, three controls are run. The first control is water. The second control is a freshly-made solution of 0.125% Triton-X-100 in water, prepared by diluting the 1% Triton-X-100 stock solution shipped with the EPIDERM™ cultures. The third control is infant irritating bowel movement (hereinafter IIBM). IIBM is prepared as described in the PREPARATION OF INFANT […] method of the TEST METHODS section. At the time of use, the required number of tubes of IIBM are thawed at room temperature and 250 microliter aliquots are dispensed into 1.5 ml polypropylene microfuge tubes using a positive displacement pipettor. To each microfuge tube is then added 10 microliters of a 1 N NaOH solution to raise the pH and ensure activity of the fecal enzymes. For the IIBM control, an additional 250 microliters of water is added, and the tube is mixed thoroughly using a vortex mixer.\n(§6) For preparation of the test samples, a suspension in water of the material to be tested is first prepared. As an example, a 1% suspension of zinc oxide in water is prepared by weighing out 0.1 grams of zinc oxide into a 15 ml polypropylene tube (such as Cat No. 21008-935 from VWR) and adding sufficient water to bring the volume to 10 milliliters. Each suspension is vortexed thoroughly and allowed to sit for at least one hour at room temperature prior to use. To ascertain the irritancy of the test sample by itself, the neat suspension is applied to the EPIDERM™ culture. To ascertain the ability of the test sample to reduce the irritancy of IIBM, 250 microliters of the suspension is added to a microfuge tube already containing a 250 microliter aliquot of IIBM plus 10 microliters of 1 N NaOH (as prepared above). […]"}, "[3]": {"tested_on": "EPIDERM™ cultures", "assay": "Epiderm culture viability, MTT assay", "assay_type": "cell-based, human", "conditions": "mixed with IIBM, 16 hours, normalized to water control", "source_text": "as §1, §2, §3, §4, §5, §6"}}, "note": "Several values for one entry are separate records, joined by “and”; a condition that tells them apart may be missing. Identical values can stand only once."}
{"compound": "O=C([O-])[O-].[Zn+2]", "note": "[zinc carbonate]", "values": [{"measurement": "available (labile) Zn2+, binary visual assessment of colour change", "setting": "[1]", "value": "having available Zn^2+"}]}
{"compound": "O=S(=O)([O-])[O-].[Zn+2]", "note": "[Zinc Sulfate, zinc sulfate]", "values": [{"measurement": "Mean % IL-1α Reduction", "setting": "[2]; zinc sulfate 87 mM (2.5% w/w)", "value": "99% and 98%"}, {"measurement": "Mean % IL-1α Reduction", "setting": "[2]; zinc sulfate 174 mM (5.0% w/w)", "value": "98% and 99%"}, {"measurement": "Normalized EPIDERM Viability", "setting": "[3]; zinc sulfate 87 mM (2.5% w/w)", "value": "44% and 28%"}, {"measurement": "Normalized EPIDERM Viability", "setting": "[3]; zinc sulfate 174 mM (5.0% w/w)", "value": "14% and 11%"}]}
{"compound": "OCC(O)CO.[Zn]", "note": "[zinc monoglycerolate]", "values": [{"measurement": "available (labile) Zn2+, binary visual assessment of colour change", "setting": "[1]", "value": "having available Zn^2+"}]}
{"compound": "zinc stearate", "values": [{"measurement": "available (labile) Zn2+, binary visual assessment of colour change", "setting": "[1]", "value": "having available Zn^2+"}]}
{"compound": "[O]=[Zn]", "note": "[Zinc Oxide, zinc oxide]", "values": [{"measurement": "available (labile) Zn2+, binary visual assessment of colour change", "setting": "[1]", "value": "having available Zn^2+"}, {"measurement": "Mean % IL-1α Reduction", "setting": "[2]; zinc oxide 31 mM (0.25% w/w)", "value": 68, "unit": "%"}, {"measurement": "Mean % IL-1α Reduction", "setting": "[2]; zinc oxide 63 mM (0.5% w/w)", "value": 76, "unit": "%"}, {"measurement": "Mean % IL-1α Reduction", "setting": "[2]; zinc oxide 125 mM (1.0% w/w)", "value": 90, "unit": "%"}, {"measurement": "Normalized EPIDERM Viability", "setting": "[3]; zinc oxide 31 mM (0.25% w/w)", "value": 95, "unit": "%"}, {"measurement": "Normalized EPIDERM Viability", "setting": "[3]; zinc oxide 63 mM (0.5% w/w)", "value": 95, "unit": "%"}, {"measurement": "Normalized EPIDERM Viability", "setting": "[3]; zinc oxide 125 mM (1.0% w/w)", "value": 96, "unit": "%"}]}
